Assays:
DIGSA [1] = assay: Pre-emergence herbicidal action against DIGSA; type: in vivo, Digitaria sanguinalis
Outline: (§1)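 Seeds sown in sandy loam, soil-covered; compound sprayed on soil surface pre-emergence. Application: WP/EC, 600–800 l/ha, 0.2% wetting agent. Readout: visual % damage at 3 weeks.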

POLCO = assay: Pre-emergence herbicidal action against POLCO; type: in vivo, Polygonum convolvulus; conditions: dosage 80 g/ha
Outline: as §1

ECHCG [2] = assay: Pre-emergence herbicidal action against ECHCG; type: in vivo, Echinochloa crus-galli; conditions: 80 g/ha
Outline: as §1

DIGSA [3] = assay: Post-emergence herbicidal action against DIGSA; type: in vivo, Digitaria sanguinalis; conditions: 20 g/ha
Outline: (§2)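 Percent herbicidal action is rated by eye about 3 weeks after treatment against untreated controls, where 100% means dead plants and 0% means like controls. Plants in sandy loam are sprayed on green parts at the one-leaf stage with aqueous WP or EC preparations at 600 to 800 l/ha plus 0.2% wetting agent.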

VIOTR [4] = assay: Pre-emergence herbicidal action against VIOTR; type: in vivo, Viola tricolor
Outline: as §1

AMARE [5] = assay: Pre-emergence herbicidal action against AMARE; type: in vivo, Amaranthus retroflexus
Outline: as §1

VERPE = assay: Pre-emergence herbicidal action against VERPE; type: in vivo, Veronica persica
Outline: as §1

ABUTH [6] = assay: Pre-emergence herbicidal action against ABUTH; type: in vivo, Abutilon theophrasti
Outline: as §1

MATIN [7] = assay: Post-emergence herbicidal action against MATIN; type: in vivo, Matricaria inodora; conditions: dosage 20 g/ha
Outline: as §2

PHBPU [8] = assay: Post-emergence herbicidal action against PHBPU; type: in vivo, Pharbitis purpurea
Outline: as §2

LOLRI = assay: Pre-emergence herbicidal action against LOLRI; type: in vivo, Lolium rigidum; conditions: 80 g/ha
Outline: as §1

AMARE [9] = assay: Post-emergence herbicidal action against AMARE; type: in vivo, Amaranthus retroflexus; conditions: 20 g/ha, visual assessment about 3 weeks after treatment, 100% = plants have died, 0% = like control plants
Outline: as §2

ALOMY [10] = assay: Pre-emergence herbicidal action against ALOMY; type: in vivo, Alopecurus myosuroides
Outline: as §1

ALOMY [11] = assay: Post-emergence herbicidal action against ALOMY; type: in vivo, Alopecurus myosuroides; conditions: dosage 20 g/ha, visual assessment about 3 weeks after treatment vs untreated controls
Outline: as §2

SETVI [12] = assay: Pre-emergence herbicidal action against SETVI; type: in vivo, Setaria viridis; conditions: dosage 80 g/ha
Outline: as §1

MATIN [13] = assay: Pre-emergence herbicidal action against MATIN; type: in vivo, Matricaria inodora
Outline: as §1

ABUTH [14] = assay: Post-emergence herbicidal action against ABUTH; type: in vivo, Abutilon theophrasti; conditions: visual assessment about 3 weeks after treatment vs untreated controls
Outline: as §2

PHBPU [15] = assay: Pre-emergence herbicidal action against PHBPU; type: in vivo, Pharbitis purpurea
Outline: as §1

ECHCG [16] = assay: Post-emergence herbicidal action against ECHCG; type: in vivo, Echinochloa crus-galli; conditions: dosage 20 g/ha
Outline: as §2

AVEFA = assay: Pre-emergence herbicidal action against AVEFA; type: in vivo, Avena fatua
Outline: as §1

VIOTR [17] = assay: Post-emergence herbicidal action against VIOTR; type: in vivo, Viola tricolor; conditions: 20 g/ha
Outline: as §2

SETVI [18] = assay: Post-emergence herbicidal action against SETVI; type: in vivo, Setaria viridis; conditions: dosage 20 g/ha
Outline: as §2

[19] = 20 g/ha, scored visually after 3 weeks vs untreated controls, 100% = plants have died, 0% = like control plants
[20] = 80 g/ha, scored visually after 3 weeks vs untreated controls (100% = plants have died, 0% = like control plants)
[21] = dosage 20 g/ha, scored visually after 3 weeks vs untreated controls, 100% = plants have died, 0% = like control plants
[22] = 80 g/ha, pre-emergence, scored visually after 3 weeks vs untreated controls (100% = plants have died, 0% = like control plants)
[23] = 20 g/ha, scored visually after 3 weeks, 100% = plants have died, 0% = like control plants

## CCCNC(=O)c1c(C(F)F)ccc(C(=O)Nc2nnnn2CC)c1Cl [Example 2-154]
DIGSA [1]; dosage 20 g/ha
  Pre-emergence action against DIGSA in %: 100%
DIGSA [1]; dosage 80 g/ha
  Pre-emergence action against DIGSA in %: 100%
POLCO
  Pre-emergence action against POLCO in %: 90%
ECHCG [2]
  Pre-emergence action against ECHCG in %: 100%
DIGSA [3]
  Post-emergence action against DIGSA: 90%
VIOTR [4]; dosage 80 g/ha
  Pre-emergence action against VIOTR in %: 100%
AMARE [5]; [19]
  Pre-emergence action against AMARE in %: 100%
AMARE [5]; [20]
  Pre-emergence action against AMARE in %: 100%
VERPE; dosage 80 g/ha
  Pre-emergence action against VERPE in %: 100%
ABUTH [6]; [20]
  Pre-emergence action against ABUTH (herbicidal activity): 100%
ABUTH [6]; [21]
  Pre-emergence action against ABUTH (herbicidal activity in percent): 100%
MATIN [7]
  Post-emergence action against MATIN in %: 80%
PHBPU [8]; dosage 5 g/ha
  Post-emergence action against PHBPU in %: 90%
PHBPU [8]; dosage 20 g/ha
  Post-emergence action against PHBPU in %: 90%
LOLRI
  Pre-emergence action against LOLRI in %: 90%
AMARE [9]
  Post-emergence action at 20 g/ha against AMARE in %: 90%
ALOMY [10]; [22]
  Pre-emergence action against ALOMY (herbicidal activity): 100%
ALOMY [11]
  Post-emergence action against ALOMY in %: 80%
SETVI [12]
  Pre-emergence action against SETVI in %: 100%
MATIN [13]; dosage 20 g/ha
  Pre-emergence action against MATIN in %: 100%
MATIN [13]; dosage 80 g/ha
  Pre-emergence action against MATIN in %: 100%
ABUTH [14]; dosage 5 g/ha
  Post-emergence action against ABUTH in %: 80%
ABUTH [14]; dosage 20 g/ha
  Post-emergence action against ABUTH in %: 90%
PHBPU [15]; dosage 20 g/ha
  Pre-emergence action against PHBPU in %: 80%
PHBPU [15]; dosage 80 g/ha
  Pre-emergence action against PHBPU in %: 100%
ECHCG [16]
  Post-emergence action against ECHCG in %: 90%

## CCn1nnnc1NC(=O)c1ccc(C(F)F)c(C(=O)NC(C)C)c1Cl [Example 2-155]
DIGSA [1]; Digitaria sanguinalis, 504 h, dosage 20 g/ha
  pest or weed control at 20 g/ha: 100%
DIGSA [1]; Digitaria sanguinalis, 504 h, dosage 80 g/ha
  pest or weed control at 80 g/ha: 100%
POLCO; Fallopia convolvulus, 504 h
  pest or weed control at 80 g/ha: 90%
ECHCG [2]; Echinochloa crus-galli, 504 h
  pest or weed control at 80 g/ha: 100%
VIOTR [4]; Viola tricolor, 504 h, dosage 20 g/ha
  pest or weed control at 20 g/ha: 90%
VIOTR [4]; Viola tricolor, 504 h, dosage 80 g/ha
  pest or weed control at 80 g/ha: 100%
AMARE [5]; Amaranthus retroflexus, 504 h, 20 g/ha, scored visually after 3 weeks vs untreated controls, 100% = plants have died, 0% = like control plants
  pest or weed control at 20 g/ha: 100%
AMARE [5]; Amaranthus retroflexus, 504 h, 80 g/ha, scored visually after 3 weeks vs untreated controls, 100% = plants have died, 0% = like control plants
  pest or weed control at 80 g/ha: 100%
VERPE; Veronica persica, 504 h, dosage 20 g/ha
  pest or weed control at 20 g/ha: 80%
VERPE; Veronica persica, 504 h, dosage 80 g/ha
  pest or weed control at 80 g/ha: 100%
ABUTH [6]; Abutilon theophrasti, 504 h, 80 g/ha, scored visually after 3 weeks vs untreated controls (100% = plants have died, 0% = like control plants)
  pest or weed control at 80 g/ha: 100%
ABUTH [6]; Abutilon theophrasti, 504 h, dosage 20 g/ha, scored visually after 3 weeks vs untreated controls, 100% = plants have died, 0% = like control plants, read-out: Pre-emergence action against ABUTH (herbicidal activity in percent)
  pest or weed control at 20 g/ha: 100%
MATIN [7]; Tripleurospermum inodorum, 504 h
  pest or weed control at 20 g/ha: 90%
AVEFA; Avena fatua, 504 h, 80 g/ha, pre-emergence
  pest or weed control at 80 g/ha: 90%
PHBPU [8]; Ipomoea purpurea, 504 h, dosage 20 g/ha
  pest or weed control at 20 g/ha: 80%
LOLRI; Lolium rigidum, 504 h
  pest or weed control at 80 g/ha: 80%
AMARE [9]; Amaranthus retroflexus, 504 h
  pest or weed control at 20 g/ha: 90%
ALOMY [10]; Alopecurus myosuroides, 504 h, 80 g/ha, pre-emergence, scored visually after 3 weeks vs untreated controls (100% = plants have died, 0% = like control plants)
  pest or weed control at 80 g/ha: 100%
ALOMY [10]; Alopecurus myosuroides, pre-emergence, 504 h, 20 g/ha, scored visually after 3 weeks, 100% = plants have died, 0% = like control plants
  pest or weed control at 20 g/ha: 80%
ALOMY [11]; Alopecurus myosuroides, 504 h
  pest or weed control at 20 g/ha: 90%
SETVI [12]; Setaria viridis, 504 h
  pest or weed control at 80 g/ha: 90%
MATIN [13]; Tripleurospermum inodorum, 504 h, dosage 20 g/ha
  pest or weed control at 20 g/ha: 100%
MATIN [13]; Tripleurospermum inodorum, 504 h, dosage 80 g/ha
  pest or weed control at 80 g/ha: 100%
ABUTH [14]; Abutilon theophrasti, 504 h, dosage 5 g/ha
  pest or weed control at 5 g/ha: 80%
ABUTH [14]; Abutilon theophrasti, 504 h, dosage 20 g/ha
  pest or weed control at 20 g/ha: 80%
VIOTR [17]; Viola tricolor, 504 h
  pest or weed control at 20 g/ha: 80%
PHBPU [15]; Ipomoea purpurea, 504 h, dosage 80 g/ha
  pest or weed control at 80 g/ha: 100%

## CCc1c(C(=O)Nc2nnnn2CC)ccc(C(F)(F)F)c1C(=O)NCC(F)F [Example 2-276]
POLCO
  Pre-emergence action against POLCO in %: 90%
ECHCG [2]
  Pre-emergence action against ECHCG in %: 80%
VIOTR [4]; dosage 20 g/ha
  Pre-emergence action against VIOTR in %: 100%
VIOTR [4]; dosage 80 g/ha
  Pre-emergence action against VIOTR in %: 100%
AMARE [5]; [19]
  Pre-emergence action against AMARE in %: 100%
AMARE [5]; [20]
  Pre-emergence action against AMARE in %: 100%
VERPE; dosage 80 g/ha
  Pre-emergence action against VERPE in %: 80%
ABUTH [6]; [20]
  Pre-emergence action against ABUTH (herbicidal activity): 100%
ABUTH [6]; [21]
  Pre-emergence action against ABUTH (herbicidal activity in percent): 100%
MATIN [7]
  Post-emergence action against MATIN in %: 90%
AVEFA; [23]
  Pre-emergence action against AVEFA: 80%
AVEFA; 80 g/ha, pre-emergence
  Pre-emergence action against AVEFA in %: 90%
PHBPU [8]; dosage 5 g/ha
  Post-emergence action against PHBPU in %: 80%
PHBPU [8]; dosage 20 g/ha
  Post-emergence action against PHBPU in %: 90%
LOLRI
  Pre-emergence action against LOLRI in %: 80%
AMARE [9]
  Post-emergence action at 20 g/ha against AMARE in %: 90%
ALOMY [10]; [23]
  Pre-emergence action against ALOMY: 90%
ALOMY [10]; [22]
  Pre-emergence action against ALOMY (herbicidal activity): 90%
SETVI [18]
  Post-emergence action against SETVI in %: 80%
ALOMY [11]
  Post-emergence action against ALOMY in %: 80%
SETVI [12]
  Pre-emergence action against SETVI in %: 100%
MATIN [13]; dosage 20 g/ha
  Pre-emergence action against MATIN in %: 100%
MATIN [13]; dosage 80 g/ha
  Pre-emergence action against MATIN in %: 100%
ABUTH [14]; dosage 5 g/ha
  Post-emergence action against ABUTH in %: 80%
ABUTH [14]; dosage 20 g/ha
  Post-emergence action against ABUTH in %: 80%
VIOTR [17]
  Post-emergence action against VIOTR in %: 80%
PHBPU [15]; dosage 80 g/ha
  Pre-emergence action against PHBPU in %: 90%
ECHCG [16]
  Post-emergence action against ECHCG in %: 90%
